{"source": "patent US20010049389A1", "about": "“Arthropod-controlling composition” (priority 2000, published 2001)", "format_in_all_cases": "in vivo", "key": {"[1]": {"system": "adult German cockroaches (Blattella germanica)", "test": "Test Example 4: smoking formulation in 28 m^3 chamber, German cockroaches", "details": "10 g smoking (Preparation example 25) in 28 m^3 chamber", "description": "(§1) In a test chamber of 3 m×4 m and 2.3 m in height (28 m^3), two plastic cups were put at two corners, wherein each cup has ten (5 males and 5 females) adult German cockroaches (Blattella germanica) therein. Ten grams (10 g) of the smoking obtained in Preparation example 25 and 50g of magnesium oxide were charged into each of the cells in an aluminum container having an aluminum wall. The cell charged magnesium oxide has small holes. The aluminum container was dipped into water in the plastic container set in the test chamber. The smoking was heated to release the vaporized active ingredient by the reaction heats of magnesium oxide with water. After 2 hours, knock-down percentage was observed. Further, the cockroaches were transferred to a clean plastic cup and given foods and water. The mortality was observed after 7 days."}, "[2]": {"system": "adult American cockroaches (Periplaneta americana)", "test": "Test Example 4: smoking formulation in 28 m^3 chamber, American cockroaches", "details": "10 g smoking (Preparation example 25) in 28 m^3 chamber", "description": "as §1\nFurthermore, the same tests were performed except that six (3 males and 3 females) adult smokybrown cockroaches (Periplaneta fuliginosa) and six (3 males and 3 females) adult American cockroaches (Periplaneta americana) were used in place of ten German cockroaches."}, "[3]": {"system": "adult German cockroaches (Blattella germanica)", "test": "Test Example 5: heating fumigant (ceramic plate) in 5.8 m^3 chamber, German cockroaches", "details": "heating fumigant (Preparation example 24, 500 mg) at about 200° C. in 5.8 m^3 chamber", "method": "On the bottom of a cubic chamber having 1.8 m of side (5.8 m^3), the heating fumigant (ceramic plate) obtained in Preparation example 24 with an electric heater was set in the center. Two plastic cups were put at two corners in the chamber, wherein each cup has ten (5 males and 5 females) adult German cockroaches (Blattella germanica) therein. Two hours after turning on an electric current, the ceramic plate was heated to about 200° C. (200±5° C.) and the active ingredient was vaporized. The heating temperature was estimated by measuring a surface temperature of the ceramic plate with radiation pyrometer (TR-0506C produced by Minolta Company) in advance. Then, the knocked-down cockroaches were counted and the knock-down percentage was calculated. Further, the cockroaches were transferred to a clean plastic cup and given foods and water. The mortality was observed after 7 days."}, "[4]": {"system": "female adult common mosquitoes (Culex pipiens pallens)", "test": "Test Example 6: mosquito-coil in 0.34 m^3 chamber, knock-down of common mosquitoes", "details": "1% mosquito-coil (Preparation example 18) burnt in 0.34 m^3 chamber, after 15 minutes", "method": "On the bottom center of a cubic chamber having 70 cm of side (0.34 m^3), the mosquito-coil obtained in Preparation example 18 was set in a mosquito-coil holder. The mosquito-coil was ignited and the air in the chamber was stirred with a battery-type small electric fun. After that, the mosquito-coil and the electric fun were taken out and twenty female adult common mosquitoes (Culex pipiens pallens) were released into the chamber. After 15 minutes, the knock-down percentage was observed. Reference compound was also tested."}, "[5]": {"system": "termites (Coptotermes formosanus)", "test": "Test Example 9: treated soil after 3 months storage, termites", "details": "10 ml of 0.5% (w/w) solution in 200 g soil, kept 3 months at 40° C. in the dark, after 10 days", "method": "The Pyrone Compound was dissolved in water to give a 10 ml solution having 0.5% (w/w) of a concentration. The solution was mixed with 200 g of soil and air-dried. After keeping for 3 months at 40° C. and in the dark, about 10 g of the soil were put on a plastic Petri dish having 9 cm in diameter. The soil was wetted with distilled water and 10 termites (Coptotermes formosanus) were released thereon. After 10 days, the termites were observed and the percent moribund was 100%."}, "[6]": {"system": "adult copra mites (Tyrophagus putrescentiae)", "test": "Test Example 11: treated drawing paper, copra mites", "details": "drawing paper 800 mg/m^2, 25° C., 75% humidity, 24 hours", "method": "On a black drawing paper having 38 mm in diameter, 0.2 ml of an acetone solution of the Pyrone Compound was added dropwise and air-dried. The treated dosage was 800 mg/m^2. The drawing paper was set on an aluminum plate having 38 mm in diameter and adhesives were put on the edge to prevent for tested mites to escape. About 30 adult copra mites (Tyrophagus putrescentiae) were released on the drawing paper and kept at 25° C. and 75% of humidity for 24 hours. After that, the mortality was observed. The result was 93%."}, "[7]": {"system": "adult pill bugs (Armadillidium vulgare)", "test": "Test Example 12: oil-based aerosol spray, pill bugs", "details": "about 450 mg of 1.0% oil-based aerosol sprayed, after 3 days", "method": "According to Preparation examples 10-14, 1.0% oil-based aerosol of the Pyrone Compound was obtained. A container (8.75 cm in diameter, 7.5 cm in height, bottom covered 16-mesh iron net and inside wall painted butter for preventing tested pill bugs to escape) having 5 adult pill bugs (Armadillidium vulgare) therein was set on the bottom center of a glass cylinder having 20 cm in diameter and 60 cm in height. About 450 mg of the above oil-based aerosol were sprayed to the pill bugs from the upper part of the cylinder. After 30 seconds, the pill bugs were taken out and put into a clean plastic cup having soil and dead leaves therein. The pill bugs were given food and water and observed after 3 days. The tests were repeated twice. The mortality was 100%. Reference compound was also tested and the mortality was 40%."}, "[8]": {"system": "whiteflies (Bemisia argentifolii)", "test": "Test Example 16: foliar spray on cabbage, whiteflies", "details": "500 ppm dilution of flowable (Preparation example 7), 30 ml sprayed, after 6 days", "method": "About 50 whiteflies (Bemisia argentifolii) were put on a cabagge leaf (in first-leaf stage) grown in a 90 ml plastic cup.\nThe formulation obtained in Preparation example 7 was diluted with water containing a spreading agent (Tokurino produced by Nihon Nohyaku Co.) to make the concentration of the Pyrone Compound to 500 ppm. Thirty milliliters (30 ml) of the dilution were sprayed to the cabbage (in first-leaf stage) and air-dried. The plastic pot was allowed to stand at 25±2° C. in a greenhouse. After 6 days, the mortality was 90% or more."}, "[9]": {"system": "3-instar larvae of diamondback moth (Plutella xylostella)", "test": "Test Example 18: treated cabbage leaf disc, feeding damage by diamondback moth", "details": "50 μg on cabbage leaf disc of 1 cm diameter, after 24 hours", "method": "A methanol solution (50 μg/20 μl) of the Pyrone Compound was prepared. The solution (20 μl) was painted on a cut leaf disc of cabbage (1 cm in diameter). After vaporizing methanol, the leaf disc was put on a filter paper, which was wet with 1 ml of water, in Petri dish making the painted surface upside. Two 4-instar larvae of tobacco cutworm (Spodoptera litura) were put in the Petri dish. After 24 hours, the damage of the leaf disc was observed and compared with the test result of the non-treated disc. The tests were repeated 5 times.\nThe same procedure was performed as in Test example 17 except that five 3-instar larvae of diamondback moth (Plutella xylostella) was used in place of tobacco cutworm (Spodoptera litura)."}}}
{"compound": "Cc1cc(O)c(C(=O)CC(C)C)c(=O)o1", "note": "[The Pyrone Compound]", "values": [{"measurement": "Knock-down percentage (%)", "setting": "[1]; after 2 hours", "value": 100, "unit": "%"}, {"measurement": "Mortality (%)", "setting": "[1]; after 7 days", "value": 100, "unit": "%"}, {"measurement": "Knock-down percentage (%)", "setting": "[2]; after 2 hours", "value": 100, "unit": "%"}, {"measurement": "Mortality (%)", "setting": "[2]; after 7 days", "value": 75, "unit": "%"}, {"measurement": "Mortality (%)", "setting": "[3]; after 7 days", "value": 100, "unit": "%"}, {"measurement": "Knock-down percentage (%)", "setting": "[3]; two hours", "value": 100, "unit": "%"}, {"measurement": "Knock-down percentage (%)", "setting": "[4]", "value": 98, "unit": "%"}, {"measurement": "percent moribund", "setting": "[5]", "value": 100, "unit": "%"}, {"measurement": "mortality", "setting": "[6]", "value": 93, "unit": "%"}, {"measurement": "mortality", "setting": "[7]", "value": 100, "unit": "%"}, {"measurement": "mortality", "setting": "[8]", "value": "≥ 90", "unit": "%"}, {"measurement": "damage of the leaf disc compared with the non-treated disc", "setting": "[9]", "value": "clearly smaller"}]}
